Source: patent publication US6344471B1 (priority 1998, dated 2002)

Tests used:
[1] = tested on: high-affinity DFP binding site; parameters: species or system rat
young adult rats = details: rat, in vivo; cited from earlier work
[2] = tested on: rats having a lesion of the entorhinal cortex; details: rat, in vivo, ip
acetylcholinesterase = acetylcholinesterase (Rattus norvegicus, UniProt P37136); assay: biochemical
acetylcholinesterase, sequence (P37136 32-614): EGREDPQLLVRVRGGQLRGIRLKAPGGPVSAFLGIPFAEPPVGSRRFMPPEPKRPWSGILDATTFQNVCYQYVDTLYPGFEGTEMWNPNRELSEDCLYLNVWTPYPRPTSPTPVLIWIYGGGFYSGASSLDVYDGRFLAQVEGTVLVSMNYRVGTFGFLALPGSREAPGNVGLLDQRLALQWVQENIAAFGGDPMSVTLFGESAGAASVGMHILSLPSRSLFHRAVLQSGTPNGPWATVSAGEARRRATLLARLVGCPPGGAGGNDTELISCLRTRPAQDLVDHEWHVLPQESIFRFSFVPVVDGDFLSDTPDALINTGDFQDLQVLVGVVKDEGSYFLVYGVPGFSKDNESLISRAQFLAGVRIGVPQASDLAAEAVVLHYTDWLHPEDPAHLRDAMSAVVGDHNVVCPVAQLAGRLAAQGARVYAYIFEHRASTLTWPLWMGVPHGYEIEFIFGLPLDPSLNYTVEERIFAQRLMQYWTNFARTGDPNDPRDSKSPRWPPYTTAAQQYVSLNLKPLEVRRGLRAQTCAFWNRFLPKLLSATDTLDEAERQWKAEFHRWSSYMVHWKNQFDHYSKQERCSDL

## COP(=O)(OC)OC=C(Cl)Cl [dichlorvos, reference compound]
[1]
  binding/affinity to the high-affinity DFP binding site ([3H]DFP competition in vitro): binds

## Nc1c2c(nc3ccccc13)CCCC2 [tacrine]
Young adult rats
  improvement of cognitive learning ability: no improvement

## CCCc1c(CC)c(=O)on1C(=O)N1CCCC1 [Example 1, 4-Ethyl-3-propyl-2-(1-pyrrolidinylcarbonyl)-5(2H)-isoxazolone]
[1]; read-out: IC50, inhibition of binding of [3H]DFP to the high-affinity binding site
  IC50: 4.8 nM
[2]
  antagonism of the learning weakness induced by lesion of the entorhinal cortex: not capable of antagonizing the learning weakness
  learning of the platform position: sped up learning of the platform position considerably
  performance level on the second day of training: same performance level as the vehicle-treated animals after 5 days of training
acetylcholinesterase
  Ki: > 10000 nM
  selectivity (DFP binding site vs acetylcholinesterase): > 2000
